Reference: patent US11957680B2, “Pyruvate kinase activators for use in treating blood disorders” (Agios Pharmaceuticals, Inc., priority 2017, dated 2024)

Columns and labels:
[1] = target: T1, wild type PKR (Homo sapiens, UniProt P30613); experiment: PKR (wild type) enzyme AC50 assay, LDH/NADH-coupled, absorbance at 340 nm; type: biochemical; conditions: for AC50: Table 2, enzyme assay, read-out: PKR WT AC50; for EC50: Table 4, AC50, enzyme assay, read-out: PKR WT
Protocol: (§1) Example 11. PKR Mutant Assay
(§2) PKR or PKR mutant enzyme solution was diluted into a reaction mix, which contains 1× buffer (100 mM KCl, 50 mM Tris pH 7.5, 5 mM MgCl2) as well as PEP (conc depends on enzyme), 180 μM NADH, 0.5 units LDH, 1 mM DTT, 0.03% BSA; final assay concentrations after 1.11 fold dilution are indicated.
(§3) 2 μL of test compound was added into wells first, and then 180 μL reaction mix was added.
(§4) Reactions mixture with test compound was assembled except for ADP, and plates were stored for 60 minutes at room temperature.
(§5) 20 uL ADP was added to start reaction at room temperature and reaction progress was measured as changes in absorbance at 340 nm wavelength at room temperature.
(§6) Test Compound Preparation:
(§7) Test compound stock was made at 100× concentration in 100% DMSO (10 mM)
(§8) 1 to 3 dilutions were made for 11 points (i.e. 50 μl of first concentration added to 100 μl 100% DMSO to yield 3.33 mM, 50 μl of this added to 100 μl DMSO to yield 1.11 mM, and so forth) • 1 to 100 dilution into assay (2 μl in 200 μl) yielded starting concentration of 100 μM, decreasing 3 fold for 11 points.
(§9) Assay Buffer: 100 mM KCl, 50 mM Tris 7.5, 5 mM MgCl2, 1 mM DTT, 0.03% BSA
(§10) Reaction Mixture: PKR mutant enzyme: 40-400 ng/well; ADP: 0.2-1.65 mM; PEP: 0.1-0.5 mM; NADH: 180 μM; LDH: 0.5 units (Sigma #59023); DTT: 1 mM; BSA: 0.03%.

[2] = target: PKR K410E (Homo sapiens, UniProt P30613, K410E); experiment: PKR mutant assay (K410E), AC50, LDH/NADH-coupled, absorbance at 340 nm; type: biochemical; conditions: for EC50: Table 4, AC50, enzyme assay
Protocol: as §1, §2, §3, §4, §5, §6, §7, §8, §9, §10

[3] = target: PKR R510Q (Homo sapiens, UniProt P30613, R510Q); experiment: PKR mutant assay (R510Q), AC50, LDH/NADH-coupled, absorbance at 340 nm; type: biochemical; conditions: for AC50: Table 2, enzyme assay, read-out: PK R510Q AC50; for EC50: Table 4, AC50, enzyme assay, read-out: PK R510Q
Protocol: as §1, §2, §3, §4, §5, §6, §7, §8, §9, §10

[4] = target: T1, wild type PKR; experiment: Cell based ATP assay in purified red blood cells (Cell-Titer-Glo); parameters: endogenous in cells; host or cells: purified red blood cells from healthy volunteers; conditions: overnight at 37° C., ATP levels; for EC50: Table 4, AC50, RBCs
Protocol: Example 16. Red Blood Cell (RBC) Purification
Fresh blood drawn from healthy volunteers into K2EDTA tubes was collected. Whole blood was pelleted by spinning at 500 g for 10 minutes. Cut transfusion bag port off of Purecell leukocyte reduction neofilter (Fisher NC0267633) one (1) inch above filter. Attach a 10 ml syringe barrel to the remaining cut tubing attached to neofilter. The plasma layer was removed from the pellet of the whole blood and the pellet was resuspended in 2× volume of phosphate buffered saline (PBS). Transfer 9 ml re-suspended blood cell pellet to prepared 10 ml syringe that is attached to the neofilter. Allow whole blood to gravity flow through filter until all fluid runs through upper tubing into filter disc. Add plunger to the syringe, remove syringe from clamp and invert the filter, then plunge air through the syringe filter system. Using a new 5 ml syringe, remove filtered RBCs from the bag by the syringe port and transfer purified RBCs to a 5 ml snap cap tube that has been incubated on ice. Spin 5 ml snap cap tube at 500 g for 10 minutes at 15 C, aspirate supernatant and resuspend in AGAM (1×PBS, 1% glucose, 170 mg/L adenine, 5.25 g/L mannitol) at a density of 4×10^9 cells/mL.
Example 17. Cell Based ATP Assay
For cell based ATP assays, the compound as described herein was prepared in 100% DMSO as a 10 mM stock. Serial dilutions (1:4) were performed in 96-well V-bottom storage plate and then added 1:100 to 96-well V-bottom plates containing AGAM. RBCs were diluted in AGAM media to a density of 1×10^7 cells/mL before added 90 μL/well to black clear bottom assay plates (final compound concentration at 0.1% DMSO concentration). Assay plates were sealed using aluminum foil seals and incubated overnight at 37° C. in a humidified chamber. ATP levels were read out using Cell-Titer-Glo (Promega).

Sequence of PKR R510Q (P30613 whole entry R510Q): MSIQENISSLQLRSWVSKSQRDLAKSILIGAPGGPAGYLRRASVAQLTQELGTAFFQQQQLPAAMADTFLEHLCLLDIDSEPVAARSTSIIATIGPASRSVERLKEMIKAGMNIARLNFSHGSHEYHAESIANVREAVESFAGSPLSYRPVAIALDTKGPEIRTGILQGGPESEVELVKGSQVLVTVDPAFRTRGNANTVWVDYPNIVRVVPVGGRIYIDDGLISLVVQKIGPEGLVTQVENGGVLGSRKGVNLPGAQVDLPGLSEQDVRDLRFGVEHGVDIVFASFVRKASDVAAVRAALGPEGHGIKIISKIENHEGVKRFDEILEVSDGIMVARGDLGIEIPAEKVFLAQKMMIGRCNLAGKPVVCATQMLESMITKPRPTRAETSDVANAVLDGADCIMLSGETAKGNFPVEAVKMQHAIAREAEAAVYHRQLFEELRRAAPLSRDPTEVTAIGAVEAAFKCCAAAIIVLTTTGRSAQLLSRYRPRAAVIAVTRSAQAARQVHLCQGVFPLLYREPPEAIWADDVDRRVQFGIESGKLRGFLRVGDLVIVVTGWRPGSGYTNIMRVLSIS
T1 sequence (P30613 whole entry): as the sequence (P30613 whole entry R510Q) above, with Q510R counted along it
Sequence of PKR K410E (P30613 whole entry K410E): as the sequence (P30613 whole entry R510Q) above, with K410E, Q510R counted along it

SMILES	AC50 [1]	AC50 ([2]; Table 2, enzyme assay)	AC50 [3]	AC50 ([4]; Table 2, RBCs)	EC50 [1]	EC50 [2]	EC50 [3]	EC50 [4]	PKR K410E AC50 ([2]; Table 2, enzyme assay)	Cell based ATP assay AC50 ([4]; Table 2, RBCs)
COc1cccc(Cn2ncc3c4sc(C)nc4n(C)c3c2=O)n1 [Compound 27]	< 300 nM	301 to 800 nM	301 to 800 nM	≤ 1000 nM						
COc1cccc(Cn2ncc3c4sc(Cc5ccc(Cl)cc5)nc4n(C)c3c2=O)c1 [Compound 31]	< 300 nM	301 to 800 nM	< 300 nM	≤ 1000 nM						
Cn1c2nc(C(C(N)=O)c3ccccc3)sc2c2cnn(Cc3cccc4[nH]ncc34)c(=O)c21 (stereo not shown) [Compound 127]	< 300 nM	< 300 nM	< 300 nM	≤ 1000 nM						
Cn1c2nc(Cc3n[nH]cc3Cl)sc2c2cnn(Cc3cccc4[nH]ncc34)c(=O)c21 [Compound 244]					< 300 nM	< 300 nM	< 300 nM	≤ 1000 nM		
Cc1nc2c(s1)c1cnn(Cc3ccc(F)cc3)c(=O)c1n2C [Compound 9]	< 300 nM	< 300 nM	< 300 nM	≤ 1000 nM						
COc1cccc(Cn2ncc3c4sc(Cc5ccc(C#N)cc5)nc4n(C)c3c2=O)c1 [Compound 64]	< 300 nM	< 300 nM	< 300 nM	≤ 1000 nM						
COc1cccc(Cn2ncc3c4sc(C(=O)c5ccccc5)nc4n(C)c3c2=O)c1 [Compound 4]	> 800 nM		> 800 nM						No Fit	No Fit
Cn1c2nc(C#N)sc2c2cnn(Cc3cccc(N)n3)c(=O)c21 [Compound 147]	< 300 nM	< 300 nM	301 to 800 nM	≤ 1000 nM						
Cc1nc2c(s1)c1cnn(Cc3cn[nH]c3)c(=O)c1n2C [Compound 72]	> 800 nM	> 800 nM	> 800 nM	> 1000 nM						
Cn1c2nc(Cc3ncsc3C(N)=O)sc2c2cnn(Cc3cccc4[nH]ncc34)c(=O)c21 [Compound 196]					< 300 nM	< 300 nM	< 300 nM	≤ 1000 nM		
Cn1c2nc(Cc3cc[nH]n3)sc2c2cnn(Cc3n[nH]c4ccccc34)c(=O)c21 [Compound 372]					< 300 nM	< 300 nM	< 300 nM	≤ 1000 nM		
Cc1nc2c(s1)c1cnn(Cc3cccc(N)n3)c(=O)c1n2C [Compound 74]	< 300 nM	< 300 nM	< 300 nM	≤ 1000 nM						
COc1cccc(Cn2ncc3c4sc(Cc5ccccc5)nc4n(C)c3c2=O)c1 [Compound 5]	< 300 nM	< 300 nM	< 300 nM	≤ 1000 nM						
CC(=O)c1cccc(Cn2ncc3c4sc([S+](C)[O-])nc4n(C)c3c2=O)c1 (stereo not shown) [Compound 86]	< 300 nM	> 800 nM	> 800 nM	> 1000 nM						
Cn1c2nc(Cc3cc[nH]n3)sc2c2cnn(Cc3ccc4c(c3)OCO4)c(=O)c21 [Compound 226]					< 300 nM	< 300 nM	< 300 nM	≤ 1000 nM		
Cn1c2nc(Cc3c[nH]nn3)sc2c2cnn(Cc3ccc(OC(F)(F)F)cc3)c(=O)c21 [Compound 295]					< 300 nM	< 300 nM	< 300 nM	≤ 1000 nM		
Cn1c2nc(Cc3cnco3)sc2c2cnn(Cc3cccc4[nH]ncc34)c(=O)c21 [Compound 240]					301 to 800 nM	> 800 nM	301 to 800 nM	≤ 1000 nM		
Cn1c2nc(Cc3cc[nH]n3)sc2c2cnn(Cc3cccc4nn[nH]c34)c(=O)c21 [Compound 202]					< 300 nM	< 300 nM	< 300 nM	≤ 1000 nM		
CNc1cccc(Cc2nc3c(s2)c2cnn(Cc4cccc5[nH]ncc45)c(=O)c2n3C)c1 [Compound 103]	< 300 nM	< 300 nM	< 300 nM	≤ 1000 nM						
